Assays:
[1] = tested on: kanamycin-resistant enterococcus faecalis (lactococcus); assay: In vivo tubule sterilization test using ultrasound and nanobubbles (canine tooth root canal)
Experimental: After a canine tooth had been subjected to access cavity preparation and root canal enlargement (to #60) in vivo by common methods, a smear layer was removed with a Smear Clean (Nippon Shika Yakuhin Co., Ltd.). Then, the inside of the root canal was sufficiently dried with a cotton plug. Thereafter, 10 μl of a bacterial culture (a brain heart infusion (BHI) broth, Nissui Pharmaceuticals Co., Ltd., containing kanamycin) in which kanamycin-resistant enterococcus faecalis (lactococcus) subjected to gene transfer of pEGFP-C1 (clontech) was cultured was injected into each root canal. Subsequently, the root canal was temporarily sealed with zinc phosphate cement. Then, after 7 days, the root canal was irrigated with 3 ml of a saline solution. Thereafter, 20 μl of a drug solution containing 10% nanobubbles and 50 μg/ml of ampicillin was applied into the root canal. Then, with an ultrasound generator (SonoPore KTAC-4000), an ultrasonic device with a diameter of 1 mm of a detachable irradiation tube propagation type probe (i.e., an applicator type in which a Langevin transducer is provided inside a probe body) was inserted into the root canal, and ultrasound was delivered at a voltage of 30 V, a frequency of 1.186 MHz, a burst rate of 18.8 Hz, and a pulse-duty ratio of 50% for an application time of 120 seconds. […]

E. Coli = assay: In vitro tubule sterilization test using sodium hypochlorite and nanobubbles (extracted bovine teeth); type: cell-based; settings: for OD600 value: paper point cultured 12 hours
Experimental: Using ten extracted bovine teeth (anterior teeth), the apical area of each of the teeth was filled with photopolymerization type ionomer cement. Then, the inside of the root cavity was treated with 6% sodium hypochlorite, irrigated, and sterilized with an autoclave. Thereafter, the inside of the root canal was sufficiently irrigated with a sterilized saline solution, dried with a paper point, filled with an E. Coli saturated solution, and then cultured in a humidity bath at 37° C. for a night. Then, the E. Coli solution in the root canal was sucked with a paper point, and the root canal was filled with an irrigation solution and 1% or 0.1% sodium hypochlorite. Thereafter, 5% nanobubbles were injected into the root canal, and ultrasound was applied thereto at a voltage of 30 V, a frequency of 1.186 MHz, a burst rate of 18.8 Hz, and a pulse-duty ratio of 50% for 120 seconds. Subsequently, the root canal was sufficiently irrigated with a saline solution, and the tooth was left for one minute with a paper point inserted into the root canal. Then, the paper point was cultured. After 12 hours, the amount of bacteria was measured with an absorbance OD600.

[2] = In-vitro test for drug permeation in root canal using ultrasound and nanobubbles (extracted canine tooth, fluorescence); type: in vitro ADME
From the text: After an extracted canine tooth had been subjected to access cavity preparation and root canal enlargement (to #60) by common methods, a smear layer was removed with a Smear Clean (Nippon Shika Yakuhin Co., Ltd.), and the tooth was refrigerated in a saline solution until being used in an experiment. Then, the inside of the root canal was sufficiently dried with a cotton plug. Thereafter, to prevent a drug solution from leaking from the root canal, an apical area was filled with a Unifast III (GC Corporation). Subsequently, nanobubbles were diluted with a saline solution such that the concentration of the nanobubbles is 5% or 10% (where the bubble concentration will be expressed in terms of vol % hereinafter), thereby preparing a drug solution containing 4.5 mg/ml tetracycline (SIGMA088K0680). The 5% nanobubbles herein mean that the concentration of the nanobubbles is 6×10^8/ml. The 10% nanobubbles herein mean that the concentration of the nanobubbles is 1.2×10^9/ml. Since even a small amount of deposited tetracycline produces fluorescence when irradiated with ultraviolet radiation, a deposition site can be easily detected with a fluorescence microscope. As a control, microbubbles (Optison (Molecular Biosystems Inc., San Diego)) were used, and a 5% or 10% drug solution was used. The 5% microbubbles herein mean that the concentration of the microbubbles is 6×10^8/ml. The 10% microbubbles herein mean that the concentration of the microbubbles is 1.2×10^9/ml. Then, 20 μl of the drug solution was applied into the root canal, and using an ultrasound generator (SonoPore KTAC-4000), an ultrasonic device with a diameter of 1 mm of a detachable irradiation tube propagation type probe (i.e., an applicator type in which a Langevin transducer is provided inside a probe body) was inserted into the root canal, and the device was operated. Operating conditions were that the voltage was 30 V (0.13-0.20 W indicated by a meter) or 31 V, the frequency was 1.186 MHz, the burst rate was 18.8 Hz, the pulse-duty ratio was 50%, and the application time was 120 seconds. After a lapse of the application time, the dilution solution was sufficiently removed with a cotton plug, and then a section with a thickness of 150 μm was prepared with a saw microtome (Leica SP1600), and a microscopic examination was performed with a stereomicroscope under ultraviolet irradiation. The degree of delivery of the drug into dentin tubules was observed based on fluorescence reaction.

In the case of `CC1(C)S[C@@H]2[C@H](NC(=O)[C@H](N)c3ccccc3)C(=O)N2[C@H]1C(=O)O` [ampicillin], the “bacteria in the lateral wall of the root canal” value ([1]; 50 μg/ml ampicillin delivered using 10% nanobubbles and ultrasound 30 V, 120 seconds, fourth day (FIG. 25A)) is reported as “no bacteria were observed” and the “bacteria in the lateral wall of the root canal” value ([1]; only ampicillin, fourth day (FIG. 25B)) is reported as “bacteria were not completely killed”.
In the case of `OCl` [sodium hypochlorite], the “sterilization of the inside of the root canal” value (E. Coli; 0.1% sodium hypochlorite) is reported as “sterilized only in the presence of 5% nanobubbles”, the “bactericidal effect in the root canal” value (E. Coli; 1% sodium hypochlorite, irrespective of the presence of 5% nanobubbles) is reported as “a bactericidal effect was obtained” and the OD600 value (E. Coli; sodium hypochlorite 1.0, 5% nanobubbles +, ultrasound 30 V 120 seconds) is reported as 0. For the same molecule, the OD600 value (E. Coli; sodium hypochlorite 1.0, 5% nanobubbles −) was 0.
In the case of `CN(C)[C@@H]1C(O)=C(C(N)=O)C(=O)[C@@]2(O)C(O)=C3C(=O)c4c(O)cccc4[C@@](C)(O)[C@H]3C[C@@H]12` [tetracycline], the “degree of delivery of the drug to dentin tubules” value ([2]; 5% microbubbles, no ultrasound (FIG. 21E)) is reported as “insufficient”, the “degree of delivery of the drug to dentin tubules” value ([2]; 5% microbubbles, ultrasound 30 V (FIG. 21D)) is reported as “insufficient” and the “degree of delivery of the drug to dentin tubules” value ([2]; 5% nanobubbles, no ultrasound (FIG. 21C)) is reported as “insufficient”. For the same molecule, the “degree of delivery of the drug to dentin tubules” value ([2]; 5% nanobubbles, ultrasound 30 V, 120 seconds, 4.5 mg/ml tetracycline (FIG. 21A)) was “high”, the “degree of delivery of the drug to dentin tubules” value ([2]; 5% nanobubbles, ultrasound 31 V (FIG. 21B)) was “insufficient” and the “degree of delivery of the drug to dentin tubules” value ([2]; 10% microbubbles, no ultrasound (FIG. 22E)) was “insufficient”. For the same molecule, the “degree of delivery of the drug to dentin tubules” value ([2]; 10% microbubbles, ultrasound 30 V (FIG. 22D)) was “insufficient”, the “degree of delivery of the drug to dentin tubules” value ([2]; 10% nanobubbles, no ultrasound (FIG. 22C)) was “insufficient” and the “degree of delivery of the drug to dentin tubules” value ([2]; 10% nanobubbles, ultrasound 30 V, 120 seconds, 4.5 mg/ml tetracycline (FIG. 22A)) was “high”. For the same molecule, the “degree of delivery of the drug to dentin tubules” value ([2]; 10% nanobubbles, ultrasound 31 V (FIG. 22B)) was “insufficient”, the “drug permeation with nanobubbles compared with microbubbles” value ([2]; bubble concentrations of 5% and 10%) was “more significantly permeates” and the “degree of delivery of the drug to dentin tubules, 10% nanobubbles compared with 5% nanobubbles” value ([2]; ultrasound 30 V (FIGS. 21A and 22A)) was “higher”.
